The values that follow come from patent US12590080B2, “Compounds” (PACKINAX PTY LTD, priority 2020, dated 2026).

Data set [1] can be described thus: Dissolution of the prodrug in ethanol/water. The note with it: 67% ethanol in water solution. Format: physicochemical.
In data set [2] the test system is alpha smooth muscle actin (α-SMA). Description: Western blot of α-SMA expression in DLD-1 cells. Format: cell-based. To be noted: 24 h. The method, then:
(§1) Cells from a colorectal cancer cell line (DLD-1) were incubated with Compound Ia (0, 1, 10, 20, 50 μM), or with compound PF-3758309 (500 nM) for 24 h. At the end of 24 h culture, the medium was removed from the cells, and the cells were washed once with PBS. The cells were lysed in SDS-sample buffer. The resultant cell lysates were subjected to 10% SDS-PAGE to separate the proteins with different molecular weights, which then were blotted with antibodies against PD-L1, PAK1, PAK4, α-SMA and GAPDH.

For another data set, the target named is PAK1 (Homo sapiens, UniProt Q13153). Description: Cell-free kinase assay, PAK1. Format: biochemical.
The next data set has as its target T1, CHEK2 (Homo sapiens, UniProt O96017).
T1 construct: purchased Promega (Sydney, NSW, Australia)
Description: ADP-Glo kinase assay, CHEK2. In kind it is biochemical. The method, then:
The effects of Compound Ia on CHEK2 kinase activity was assessed using an ADP-Glo kinase assay kit purchased from Promega (Sydney, NSW, Australia). The assay was undertaken in accordance with the manufacturer's instructions.

The test system of data set [3] is EIG-1 (cholangiocarcinoma). Description: Cell proliferation, EIG-1. Format: cell-based. From the text:
(§2) Pancreatic cancer cell lines MiaPaCa-2, PANC1 (human), TB33117 (mouse), and KPCWT833 were used to test the effect of Compound Ia on cell proliferation. PANC1 and TB33117 cell lines express high levels of PAK1 and PAK4, while MiaPaCa-2 cell has low levels of PAK1 and PAK4 (Yeo, 2014 and unpublished data). […] Compound Ia was also shown to inhibit colorectal cell line MC-38, brain glioblastoma cancer cell like U-87, melanoma cell line B16F1, liver cell line HepG2, and bile duct cancer cell line EIG-1 at low to sub-micromolar IC50 values.

In a further data set the test system is B16F10 (skin cancer). Description: Cell proliferation, B16F10. Format: cell-based. The note with it: Mus musculus, B16-F10.
In data set [4] the test system is immunological biomarkers in tumour tissues. Description: Immunological biomarkers in tumour tissues by flow cytometry, syngeneic mouse models of pancreatic cancer. In kind it is in vivo. The note with it: combination with Gemcitabine. The method, then: The effects of Compound Ia on immunological biomarkers was assessed using syngeneic mouse models of pancreatic cancer.
Single cell suspension was made from tumour tissues isolated from mice treated with either gemcitabine alone or gemcitabine plus PAK227. The cell suspension was incubated with antibodies against CD45, CD4, CD8, B220, PD-L1, PD-1, CD11b and Ly6c, and then subjected to a flow-cytometry machine for cell number counting and percentage calculation.
Background: Flow cytometry measures light scatter and fluorescence of single cells or particles in a stream.

Another data set concerns U-87 (brain tumour). Description: Cell proliferation, U-87. Format: cell-based. To be noted: Homo sapiens, U-87 MG.
Description: as §2

The subject of data set [5] is TB33117 (pancreatic cancer). Description: Cell proliferation, TB33117. Format: cell-based, mouse.
Description: as §2

Another data set addresses PAK4 kinase (Homo sapiens, UniProt O96013). Description: Cell-free kinase assay, PAK4. Format: biochemical. To be noted: read-out: IC50, inhibition of PAK4 kinase.
The next data set has as its system KPC833 cells. Description: In vivo efficacy in combination with Gemcitabine, subcutaneous KPC833 tumours in C57Bl6.
In data set [6] the test system is PANC1 (pancreatic cancer). Description: Cell proliferation, PANC1. Format: cell-based, human.
Description: as §2

The subject of the next data set is MC-38 (colon cancer). Description: Cell proliferation, MC-38. Format: cell-based. The note with it: Mus musculus.
Description: as §2

Data set [7] has as its system KPCWT833 (pancreatic cancer). Description: Cell proliferation, KPCWT833. Format: cell-based.
Description: as §2

A further data set has as its system HepG2 (liver cancer). Description: Cell proliferation, HepG2. Format: cell-based. To be noted: Homo sapiens.
Description: as §2

In another data set the test system is PAK4. Description: Western blot of PAK4 expression in DLD-1 cells. In kind it is cell-based. The note with it: 24 h. The method, then:
as §1

Data set [8] concerns MiaPaCa-2 (pancreatic cancer). Description: Cell proliferation, MiaPaCa-2. Format: cell-based. The note with it: Homo sapiens, MIA PaCa-2.
Description: as §2

Another data set relates to PD-L1. Description: Western blot of PD-L1 expression in DLD-1 cells. In kind it is cell-based. To be noted: DLD-1 cells, 0, 1, 10, 20, 50 μM, 24 h. As for the experimental part: as §1
Background: Immunoblotting shows a protein as a band on a membrane.

Entries after “also recorded” stand apart in the source; their conditions may differ. Where a name gives a salt, the structure may show the parent alone. Read-outs that look alike come from different tables or passages of the source.

PAK1, sequence (Q13153 whole entry): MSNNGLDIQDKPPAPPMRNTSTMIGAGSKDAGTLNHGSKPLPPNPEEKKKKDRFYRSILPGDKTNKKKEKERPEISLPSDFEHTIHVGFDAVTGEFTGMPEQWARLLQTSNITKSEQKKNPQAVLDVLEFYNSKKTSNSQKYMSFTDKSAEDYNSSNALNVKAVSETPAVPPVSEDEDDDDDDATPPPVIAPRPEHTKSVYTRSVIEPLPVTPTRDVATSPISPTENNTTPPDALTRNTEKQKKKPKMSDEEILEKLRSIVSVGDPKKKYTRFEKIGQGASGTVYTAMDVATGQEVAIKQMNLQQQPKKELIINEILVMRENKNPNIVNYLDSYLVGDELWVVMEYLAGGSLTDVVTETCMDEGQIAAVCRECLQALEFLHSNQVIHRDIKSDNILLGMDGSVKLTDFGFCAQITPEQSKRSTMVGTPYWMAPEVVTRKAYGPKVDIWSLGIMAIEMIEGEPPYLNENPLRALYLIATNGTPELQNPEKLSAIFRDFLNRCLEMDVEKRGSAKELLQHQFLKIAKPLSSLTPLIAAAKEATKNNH
T1 sequence (O96017 whole entry): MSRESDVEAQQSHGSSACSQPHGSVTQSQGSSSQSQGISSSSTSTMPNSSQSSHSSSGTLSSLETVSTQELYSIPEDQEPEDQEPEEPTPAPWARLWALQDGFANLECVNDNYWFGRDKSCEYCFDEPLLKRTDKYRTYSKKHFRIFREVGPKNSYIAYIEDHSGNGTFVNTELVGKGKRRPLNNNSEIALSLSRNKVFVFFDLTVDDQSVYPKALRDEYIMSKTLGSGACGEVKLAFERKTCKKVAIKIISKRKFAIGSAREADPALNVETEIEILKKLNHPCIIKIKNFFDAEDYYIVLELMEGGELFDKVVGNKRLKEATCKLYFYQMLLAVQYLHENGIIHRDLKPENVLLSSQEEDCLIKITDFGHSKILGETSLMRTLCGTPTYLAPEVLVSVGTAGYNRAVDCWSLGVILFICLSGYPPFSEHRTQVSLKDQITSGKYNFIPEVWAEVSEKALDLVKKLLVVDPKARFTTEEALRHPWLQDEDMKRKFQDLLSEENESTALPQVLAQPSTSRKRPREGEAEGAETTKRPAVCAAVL
PAK4 kinase, sequence (O96013 whole entry): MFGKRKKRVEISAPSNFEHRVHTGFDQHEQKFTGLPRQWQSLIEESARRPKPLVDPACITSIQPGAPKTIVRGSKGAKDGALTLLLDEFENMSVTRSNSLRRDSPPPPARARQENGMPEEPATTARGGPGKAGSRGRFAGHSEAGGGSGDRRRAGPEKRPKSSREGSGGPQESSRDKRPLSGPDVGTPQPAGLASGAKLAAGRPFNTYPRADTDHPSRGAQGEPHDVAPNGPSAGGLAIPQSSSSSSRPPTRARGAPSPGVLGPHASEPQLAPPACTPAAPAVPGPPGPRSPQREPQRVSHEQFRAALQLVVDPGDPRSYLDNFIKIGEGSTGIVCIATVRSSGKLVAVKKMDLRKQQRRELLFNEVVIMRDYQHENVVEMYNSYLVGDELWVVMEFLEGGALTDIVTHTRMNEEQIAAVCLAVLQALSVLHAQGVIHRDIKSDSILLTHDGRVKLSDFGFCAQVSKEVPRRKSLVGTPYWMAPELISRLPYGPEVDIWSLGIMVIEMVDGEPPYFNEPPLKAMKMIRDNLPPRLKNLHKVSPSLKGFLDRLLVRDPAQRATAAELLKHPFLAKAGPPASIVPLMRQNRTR

As to `COc1cc(Cl)c(Cc2ccc(-c3cnc(NC(=O)CN)nc3)o2)c(Cl)c1` [Compound Ic, 2-amino-N-(5-{5-[(2,6-dichloro-4-methoxyphenyl)methyl]furan-2-yl}pyrimidin-2-yl)acetamide hydrochloride], the solubility in ethanol/water result in data set [1] is listed as “able to be dissolved”.
The IC50 is the concentration at which inhibition is half-maximal. In the case of `CNc1ncc(-c2ccc(Cc3c(Cl)cc(OC)cc3Cl)o2)cn1` [Compound Ia, 5-[5-[(2,6-dichloro-4-methoxyphenyl)methyl]furan-2-yl]-N-methylpyrimidin-2-amine], the “expression of alpha smooth muscle actin (α-SMA)” value in data set [2] is recorded as “reduced expression”. Further, the “effect on the kinase activity of PAK1” value on PAK1 was “did not show significant effect”. The IC50 on CHEK2 is 0.737 µM; in [3] it was 4.63 µM; with B16F10 (skin cancer), 13.3 µM; with U-87 (brain tumour) it was 6.55 ± 3.55 µM; in data set [5], 1 to 2 µM; in data set [5] (Mus musculus) it was 1.72 µM. The half-maximal inhibitory concentration (IC50) on PAK4 kinase was 0.2 to 0.5 µM; in data set [6] (Homo sapiens, PANC-1, PANC1) it was 1.11 µM; in data set [6] (PANC1), 1 to 2 µM; with MC-38 (colon cancer), 0.46 ± 0.39 µM; in data set [7], 1.23 ± 0.39 µM; in the data set with HepG2 (liver cancer), 3.76 ± 0.66 µM. The compound also showed a 50% inhibitory concentration (IC50) in data set [8] of 8.29 µM. Moreover, in data set [4], the “expression of immunological biomarkers in tumour tissues compared to Gemcitabine alone” value is recorded as “increases the expression of immunological biomarkers; also recorded: increases various immunological biomarkers”. In addition, the “toxicity (body weight)” value in the data set with KPC833 cells (combination with Gemcitabine) is “no body weight loss was observed”. For the same compound, in the data set on KPC833 cells (combination with Gemcitabine, 21 days and 31 days, 40 mg/Kg subcutaneous every other day), the “tumour volume compared to untreated control tumours” value was “regression of pancreatic tumour growth”. The “efficacy against advanced tumours compared to Gemcitabine alone” value in the data set on KPC833 cells (combination with Gemcitabine, tumour size=100 mm^3) was “improved efficacy”. Further, the “tumour volume over 21 days compared to gemcitabine alone” value with KPC833 cells (intra-tumour injection 10 mg/kg on day 1, followed by gemcitabine 50 mg/kg) was “decreased tumour volume”. The “expression of PAK4” value with PAK4 is “reduced expression”. Besides, the entries for the “expression of PD-L1” value in the data set on PD-L1 and in the data set on PD-L1 (listed as Compound Ta) were “dose-dependently inhibited” and “reduced the expression of PD-L1 to a comparable level”, respectively.
As to `Cc1nc(Nc2n[nH]c3c2CN(C(=O)N[C@H](CN(C)C)c2ccccc2)C3(C)C)c2sccc2n1` [PF3758309, reference compound], the concentration for half-maximal inhibition (IC50) in [5] (Mus musculus) came out at 0.805 µM; in [6] (Homo sapiens, PANC-1, PANC1), 0.5 µM; in data set [8], 0.087 µM.
